This is an account of results in patent publication EP2874610B1, “MULTILAYERED PHARMACEUTICAL FORMULATION” (Recordati Industria Chimica E Farmaceutica SPA, priority 2012, dated 2014).

In general, AUC(0-inf) refers to the area under the concentration-time curve extrapolated to infinity. Higher therefore signals high exposure. What is called Tmax is the time from dosing to the highest level. As a reminder, the Cmax is the maximum level reached in the sampled fluid or tissue.

One data set is described as follows: clinical. The note with it: for AUC(0-inf): AUCinf; for time plasma levels were maintained at plateau: three layer tablet of example 4, Figure 6. The procedure:
A three layer tablet of gabapentin 375 mg and flurbiprofen 37.5 mg, prepared as described in example 4, was administered to 24 healthy male and female subjects, 18-55 years old, in fasting conditions and after a high fat meal in single dose according to a randomized cross-over design. The treatment periods were separated by a wash out interval of at least 5 days.
Each dose was taken with 240 mL of water in fasting conditions from at least 10 hours or 30 minutes after a standardized meal, which was high-caloric (approximately 1000 Kcal) and high-fat (approximately 50 percent of total caloric content of the meal).
Gabapentin and flurbiprofen plasma levels were determined by a validated HPLC/MS/MS analytical method at the following times: pre-dose, 0.5, 1, 1.5, 2, 3, 4, 5, 6, 7, 8, 10, 12, 16, 24 and 32 h post-dose.

A short description of data set [1]: Dissolution test by immersion into simulated gastric fluid (USP apparatus II), then pH raised to 7.2. The class given is physicochemical. The procedure:
The dissolution profile of the trilayered tablets prepared as described in examples 1, 2 and 3 was determined by immersion into simulated gastric fluid (USP apparatus II for dissolution test).
After immersion, the tablets (n = 6) placed themselves on the bottom of the vessel and the development of CO2 bubbles which remained entrapped into the hydroxypropylmethylcellulose gel formed in contact with the aqueous medium was observed from layer A. At the same time, layer B rapidly disintegrated in correspondence with the side surface of the layer exposed to the simulated gastric fluid.
The dissolution profile of the trilayered tablets prepared as described in examples 6, and 7 was determined by immersion into simulated gastric fluid (USP apparatus II for dissolution test).

Data set [2] is described as follows: Dissolution rate under simulated fasting and fed conditions (SGF pH 1.2, FaSSGF pH 1.6, FeSSGFm pH 5.0). The class given is physicochemical. As to conditions: tablets of example 2. On the procedure: The dissolution rate of trilayered tablets prepared as described in example 2, was evaluated also under simulated fasting and fed conditions. The evaluation was carried out under the following conditions: simulated gastric fluid at pH1.2 (SGF), simulated gastric fluid at pH 1.6 (FaSSGF) for fasting conditions and simulated gastric fluid at pH 5.0 (FeSSGFm) for fed conditions.

The mark [3] stands for this setting: both, human, in vivo, Fed conditions (high fat meal), three layer tablet of example 4, single dose, arithmetic mean ± s.d., n=24.
Setting [4] is: three layer tablet of example 4, single dose.

As for `CC(C(=O)O)c1ccc(-c2ccccc2)c(F)c1` (stereo not shown) [flurbiprofen], the “Ratio of geometric means, AUCinf, Test / Reference (Fed / fasting)” value in “clinical” (both, human, in vivo) is on record as 98%. Further, the “Ratio of geometric means, Cmax, Test / Reference (Fed / fasting)” value in the data set “clinical” (both, human, in vivo) turned out to be 157%. For the same compound, the “time after intake up to which release was very low” value in “clinical” (both, human, in vivo) is “up to 2 hours”. The “time post dose at which plasma levels reached a plateau” value in “clinical” (both, human, in vivo) is “around 4 hour”. In addition, the area under the curve AUC(0-inf) in the data set “clinical” (both, human, in vivo) was determined as 35700 ± 13200 ng·h/mL. For the same compound, in “clinical” (both, human, in vivo), the Tmax was found to be 12 h. For the same compound, the “release of flurbiprofen contained in layer C in simulated gastric fluid” value in data set [1] (tablets of example 1, before raising the pH) is “not released in the first hour”; in data set [1] (tablets of example 2, pH 1.2), “not released at pH 1.2”; in data set [1] (tablets of example 3, pH 1.2) it was “not released at pH 1.2”; in data set [1] (tablets of example 6, before raising the pH) it was “not released in the first hour”; in data set [1] (tablets of example 7, pH 1.2), “not released at pH 1.2”. Moreover, the “release of flurbiprofen contained in layer C after having raised the pH to 7.2” value in data set [1] (tablets of example 1, in 5 hours, linear release) is listed as 100%; in data set [1] (tablets of example 2, in 6 hours, linear release), 90%; in data set [1] (tablets of example 3, in 6 hours, linear release), 90%; in data set [1] (tablets of example 6, in 5 hours), 100%; in data set [1] (tablets of example 7, in 7 hours, linear release) it was 90%.
`NCC1(CC(=O)O)CCCCC1` [gabapentin]: the AUC(0-inf) was 24100 ± 8150 ng·h/mL in the data set “clinical” (both, human, in vivo, Fasting conditions, three layer tablet of example 4, single dose, arithmetic mean ± s.d., n=24) and 39200 ± 9070 ng·h/mL in the data set “clinical” (setting [3]). For the same compound, the peak concentration (Cmax) in the data set “clinical” (both, human, in vivo, Fasting conditions, three layer tablet of example 4 (gabapentin 375 mg, flurbiprofen 37.5 mg), single dose, arithmetic mean ± s.d., n=24) was found to be 2340 ± 748 ng/mL; in “clinical” (setting [3]) it was 3080 ± 727 ng/mL. The Tmax in “clinical” (both, human, in vivo, Fasting conditions, three layer tablet of example 4, single dose, median (min - max), n=24) was found to be 4 h; in the data set “clinical” (both, human, in vivo, Fed conditions (high fat meal), three layer tablet of example 4, single dose, median (min - max), n=24) it was 5 h. For the same compound, the “time plasma levels were maintained at plateau” value is “about 4 hours” in the data set “clinical” (fasting conditions) and 8 h in “clinical” (fed conditions). Besides, in “clinical” (setting [4]), the “Ratio of geometric means, AUCinf, Test / Reference (Fed / fasting)” value is 167%. Moreover, the “Ratio of geometric means, Cmax, Test / Reference (Fed / fasting)” value in the data set “clinical” (setting [4]) is 136%. In addition, the “f2 factor, similarity index between SGF and FaSSGF release profiles” value in data set [2] (pH 1.2 vs pH 1.6) is on record as 83. The “f2 factor, similarity index between SGF and FeSSGFm release profiles” value in data set [2] (pH 1.2 vs pH 5.0) is given as 65.8. The “f2 factor, similarity index between FaSSFG and FeSSGFm release profiles” value in data set [2] (pH 1.6 vs pH 5.0) is listed as 55.7. Besides, in data set [2] (result in words), the “comparison of dissolution profiles in SGF, FaSSGF and FeSSGFm” value was “did not show significant differences”. Further, the “release time of gabapentin contained in layer B” value in data set [1] (tablets of example 1) is at most 5 min; in data set [1] (tablets of example 2), at most 15 min; in data set [1] (tablets of example 3), at most 15 min; in data set [1] (tablets of example 6), at most 15 min; in data set [1] (tablets of example 7), at most 15 min. In addition, the “release time of remaining dose of gabapentin contained in layer A” value in data set [1] (tablets of example 1, slow prolonged release) is on record as “about 8 hours”; in data set [1] (tablets of example 2, slow prolonged release), “about 9 hours”; in data set [1] (tablets of example 3, slow prolonged release), “about 9 hours”; in data set [1] (tablets of example 7, slow prolonged release), “about 9 hours”. For the same compound, the “release of remaining dose of gabapentin contained in layer A” value in data set [1] (tablets of example 6, in about 9 hours, slow prolonged release) is 90%.
